From PubChem BioAssay (NCI)
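In this assay, cells in 96-well plates receive the compound at five concentrations for 48 hours. Endpoints are linearly interpolated between the surrounding concentrations. GI50 marks 50% less growth. TGI is the concentration that stops growth completely.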 Where a SMILES comes first, the peptide text is derived from it. [ ]: non-standard residue; d: D form. ξ: configuration not given here. Pentanoyl(2-O,4-OH,5-Cl) = O=C(O)C(O)CC(O)CCl; Ile(3ξ) = CCC(C)[C@H](N)C(=O)O; NMeV = CN[C@H](C(=O)O)C(C)C; NMeA = CN[C@@H](C)C(=O)O; βAla = NCCC(=O)O

Columns and labels:
Assay in all cases: inhibition of tumour cell growth, NCI panel, 48 h
[1] = system: K-562 leukemia
[2] = system: 786-0 renal
[3] = system: SN12C renal
[4] = system: PC-3 prostate
[5] = system: RXF 393 renal
[6] = system: SNB-75 CNS
[7] = system: NCI-H522 lung
[8] = system: UO-31 renal
[9] = system: HL-60(TB) leukemia
[10] = system: MOLT-4 leukemia

SMILES | GI50 [1] | TGI [1] | GI50 [2] | TGI [2] | GI50 [3] | TGI [3] | GI50 [4] | TGI [4] | GI50 [5] | TGI [5] | GI50 [6] | TGI [6] | GI50 [7] | TGI [7] | GI50 [8] | TGI [8] | GI50 [9] | TGI [9] | GI50 [10] | TGI [10]
COc1ccc(-c2nn3ncccc3c2-c2ccnc(Nc3ccc(F)c(F)c3)n2)cc1 | 6.57 µM | > 25 µM | 11.1 µM | > 25 µM | 10.4 µM | > 25 µM | 8.7 µM | > 25 µM | 7.45 µM | > 25 µM | 8.49 µM | > 25 µM | 8.18 µM | > 23.6 µM | 5.8 µM | > 20.9 µM | 13.2 µM | > 25 µM | 8.45 µM | > 25 µM
CCN(CC)CCN1C(=O)C2C3C(C)=CC(OC(C)=O)(CC3C)C2C1=O (stereo not given) | > 100 µM | > 100 µM | > 100 µM | > 100 µM | > 100 µM | > 100 µM | > 100 µM | > 100 µM | > 100 µM | > 100 µM | > 100 µM | > 100 µM | > 100 µM | > 100 µM | > 100 µM | > 100 µM | > 100 µM | > 100 µM | > 100 µM | > 100 µM
CCOc1cc(/C=C/C(=O)CC(=O)/C=C/c2ccc(OC(=O)CNc3nc4ccc(OC)cc4s3)c(OCC)c2)ccc1OC(=O)CNc1nc2ccc(OC)cc2s1 | 2.71 µM | > 100 µM | 17 µM | 85.1 µM | 11.6 µM | 65.5 µM | 5.08 µM | 67.3 µM | 2.9 µM | 17 µM | 6.77 µM | 34.3 µM | 12.6 µM | 34.4 µM | 2.58 µM | > 100 µM | 2.77 µM | 15.2 µM | 3.14 µM | 11.1 µM
N#Cc1nc2cc(Cl)c(Cl)cc2nc1-c1ccc(Cl)cc1 | > 56.1 µM | > 100 µM | 16.8 µM | 34.8 µM | 28.5 µM | > 78.6 µM | 34.8 µM | > 67.7 µM | 11.2 µM | > 42.6 µM | 19.9 µM | 40.2 µM | 51.5 µM | > 100 µM | 34.7 µM | > 100 µM | > 100 µM | > 100 µM | 26.9 µM | > 60.4 µM
CCC(C)[C@@H]1NC(=O)[C@@H]2CCCN2C(=O)C(CC(O)CCl)OC(=O)CCNC(=O)[C@H](C)N(C)C(=O)[C@H](C(C)C)N(C)C1=O (stereo not given in full) (cyclo([Ile(3ξ)][NMeV][NMeA][βAla][Pentanoyl(2-O,4-OH,5-Cl)]P)) | – | > 100 µM | – | > 86.2 µM | – | > 100 µM | – | > 100 µM | – | > 100 µM | – | > 100 µM | – | > 100 µM | – | > 100 µM | – | > 100 µM | – | > 100 µM
CN1CCN(c2ccc3nc(-c4[nH]ncc4Nc4ncnc5[nH]ccc45)[nH]c3c2)CC1 | 0.299 µM | > 100 µM | 0.387 µM | 2.21 µM | 0.358 µM | 5.71 µM | 0.222 µM | 3.54 µM | 0.177 µM | 0.397 µM | 0.116 µM | 0.574 µM | 0.196 µM | 0.805 µM | 0.558 µM | 2.57 µM | 0.285 µM | 0.686 µM | 0.429 µM | 14.4 µM
C=CCn1c(SCC(=O)Nc2ccc(C(=O)/C=C/c3cc(OC)c(OC)c(OC)c3)cc2)nnc1-c1cc(OC)c(OC)c(OC)c1 | 3.44 µM | > 100 µM | 1.85 µM | 4.01 µM | 4.74 µM | > 100 µM | 4.29 µM | 22.6 µM | 2.16 µM | 4.65 µM | 2.71 µM | 27.6 µM | 6.89 µM | 27.2 µM | 4.18 µM | 17.5 µM | 2.88 µM | 33 µM | 4.22 µM | > 100 µM
CC(C)Cn1cnc2c(N)nc3ccccc3c21 | > 54.7 µM | > 100 µM | 25.2 µM | > 87.3 µM | 78.8 µM | > 100 µM | 34.7 µM | > 100 µM | 28.9 µM | 97.2 µM | 41.4 µM | > 100 µM | 78.5 µM | > 100 µM | 35.8 µM | > 100 µM | > 47.7 µM | > 100 µM | > 64.4 µM | > 100 µM
